ChEMBL document CHEMBL3046607, “Synthesis and Herbicidal Activity of New 1-Alkyl-3-aryloxypyrazole-4-carboxamide Derivatives” (J Pestic Sci, 2004)
The source made the active and inactive calls. The rule behind the calls is not given here.

Key:
[1] = system: Elatine triandra; assay: Post-emergence herbicidal activity against Elatine triandra assessed as bleaching of stem/leaf parts; format: functional, organism-based; also: test concentration or dose not given here
[2] = system: Ammannia multiflora; assay: Post-emergence herbicidal activity against Ammannia multiflora assessed as bleaching of stem/leaf parts; format: functional, organism-based
[3] = system: Rotala indica; assay: Post-emergence herbicidal activity against Rotala indica assessed as bleaching of stem/leaf parts; format: functional, organism-based
[4] = system: Lindernia procumbens; assay: Post-emergence herbicidal activity against Lindernia procumbens assessed as bleaching of stem/leaf parts; format: functional, organism-based; also: test concentration or dose not given here
[5] = system: Schoenoplectiella juncoides; assay: Post-emergence herbicidal activity against Schoenoplectiella juncoides assessed as bleaching of stem/leaf parts; format: functional, organism-based; also: test concentration or dose not given here
[6] = system: Oryza sativa; assay: Phytotoxicity against Oryza sativa cv. Koshihikari (rice) at 33 g a.i/ha measured after 14 days; format: organism-based; conditions: in vivo, 336 h
[7] = system: Ammannia multiflora; assay: Pre-emergence herbicidal activity against Ammannia multiflora at 33 g a.i/ha measured after 14 days; format: functional, organism-based
[8] = system: Elatine triandra; assay: Pre-emergence herbicidal activity against Elatine triandra at 33 g a.i/ha measured after 14 days; format: functional, organism-based
[9] = system: Rotala indica; assay: Pre-emergence herbicidal activity against Rotala indica at 33 g a.i/ha measured after 14 days; format: functional, organism-based
[10] = system: Lindernia procumbens; assay: Pre-emergence herbicidal activity against Lindernia procumbens at 33 g a.i/ha measured after 14 days; format: functional, organism-based
[11] = system: Schoenoplectiella juncoides; assay: Pre-emergence herbicidal activity against Schoenoplectiella juncoides at 33 g a.i/ha measured after 14 days; format: functional, organism-based
[12] = system: Pontederia vaginalis; assay: Pre-emergence herbicidal activity against Monochoria vaginalis at 33 g a.i/ha measured after 14 days; format: functional, organism-based
[13] = system: Cyperus difformis; assay: Pre-emergence herbicidal activity against Cyperus difformis at 33 g a.i/ha measured after 14 days; format: functional, organism-based
[14] = system: Echinochloa oryzicola; assay: Pre-emergence herbicidal activity against Echinochloa oryzicola at 33 g a.i/ha measured after 14 days; format: functional, organism-based
[15] = system: Lindernia procumbens; assay: Pre-emergence herbicidal activity against Lindernia procumbens assessed as bleaching of stem/leaf parts; format: functional, organism-based
[16] = system: Pontederia vaginalis; assay: Pre-emergence herbicidal activity against Monochoria vaginalis assessed as bleaching of stem/leaf parts; format: functional, organism-based
[17] = system: Schoenoplectiella juncoides; assay: Pre-emergence herbicidal activity against Schoenoplectiella juncoides assessed as bleaching of stem/leaf parts; format: functional, organism-based
[18] = system: Cyperus difformis; assay: Pre-emergence herbicidal activity against Cyperus difformis assessed as bleaching of stem/leaf parts; format: functional, organism-based
[19] = system: Echinochloa oryzicola; assay: Pre-emergence herbicidal activity against Echinochloa oryzicola assessed as bleaching of stem/leaf parts; format: functional, organism-based
[20] = system: Cyperus difformis; assay: Post-emergence herbicidal activity against Cyperus difformis assessed as bleaching of stem/leaf parts; format: functional, organism-based; also: test concentration or dose not given here
[21] = system: Pontederia vaginalis; assay: Post-emergence herbicidal activity against Monochoria vaginalis assessed as bleaching of stem/leaf parts; format: functional, organism-based
[22] = system: Echinochloa oryzicola; assay: Post-emergence herbicidal activity against Echinochloa oryzicola assessed as bleaching of stem/leaf parts; format: functional, organism-based
[23] = system: Ammannia multiflora; assay: Pre-emergence herbicidal activity against Ammannia multiflora assessed as bleaching of stem/leaf parts; format: functional, organism-based
[24] = system: Elatine triandra; assay: Pre-emergence herbicidal activity against Elatine triandra assessed as bleaching of stem/leaf parts; format: functional, organism-based
[25] = system: Rotala indica; assay: Pre-emergence herbicidal activity against Rotala indica assessed as bleaching of stem/leaf parts; format: functional, organism-based

Compound: Cn1cc(C(=O)Nc2ccc(Cl)cc2F)c(Oc2cccc(C(F)(F)F)c2)n1
- Activity [1]: Active
- Activity [2]: Active
- Activity [3]: Active
- Activity [4]: Active
- Activity [5]: Active
- Activity [6]: Non-toxic
- Activity [7]: Active
- Activity [8]: Active
- Activity [9]: Active
- Activity [10]: Active
- Activity [11]: inactive
- Activity [12]: Active
- Activity [13]: Active
- Activity [14]: inactive
- Activity [15]: Active
- Activity [16]: Active
- Activity [17]: Active
- Activity [18]: Active
- Activity [19]: Active
- Activity [20]: Active
- Activity [21]: Active
- Activity [22]: Active
- Activity [23]: Active
- Activity [24]: Active
- Activity [25]: Active

Compound: Cn1cc(C(=O)Nc2cccc(F)c2F)c(Oc2cccc(C(F)(F)F)c2)n1
- Activity [1]: Active
- Activity [2]: Active
- Activity [3]: Active
- Activity [4]: Active
- Activity [5]: Active
- Activity [6]: Non-toxic
- Activity [7]: Active
- Activity [8]: Active
- Activity [9]: Active
- Activity [10]: Active
- Activity [11]: inactive
- Activity [12]: Active
- Activity [13]: Active
- Activity [14]: inactive
- Activity [15]: Active
- Activity [16]: Active
- Activity [17]: Active
- Activity [18]: Active
- Activity [19]: Active
- Activity [20]: Active
- Activity [21]: Active
- Activity [22]: Active
- Activity [23]: Active
- Activity [24]: Active
- Activity [25]: Active

Compound: Cn1cc(C(=O)Nc2ccc(F)c(F)c2F)c(Oc2cccc(C(F)(F)F)c2)n1
- Activity [1]: Active
- Activity [2]: Active
- Activity [3]: Active
- Activity [4]: Active
- Activity [5]: Active
- Activity [6]: Non-toxic
- Activity [7]: Active
- Activity [8]: Active
- Activity [9]: Active
- Activity [10]: Active
- Activity [11]: Active
- Activity [12]: Active
- Activity [14]: Active
- Activity [15]: Active
- Activity [16]: Active
- Activity [17]: Active
- Activity [18]: Active
- Activity [19]: Active
- Activity [20]: Active
- Activity [21]: Active
- Activity [22]: Active
- Activity [23]: Active
- Activity [24]: Active
- Activity [25]: Active

Compound: CCCn1cc(C(=O)Nc2ccc(F)cc2F)c(Oc2cccc(C(F)(F)F)c2)n1
- Activity [1]: Active
- Activity [2]: Active
- Activity [3]: Active
- Activity [4]: Active
- Activity [5]: Active
- Activity [6]: Non-toxic
- Activity [7]: inactive
- Activity [8]: inactive
- Activity [9]: inactive
- Activity [10]: inactive
- Activity [11]: inactive
- Activity [12]: inactive
- Activity [13]: inactive
- Activity [14]: inactive
- Activity [15]: Active
- Activity [16]: Active
- Activity [17]: Active
- Activity [18]: Active
- Activity [19]: Active
- Activity [20]: Active
- Activity [21]: Active
- Activity [22]: Active
- Activity [23]: Active
- Activity [24]: Active
- Activity [25]: Active

Compound: CC(C)n1cc(C(=O)Nc2ccc(F)cc2F)c(Oc2cccc(C(F)(F)F)c2)n1
- Activity [1]: Active
- Activity [2]: Active
- Activity [3]: Active
- Activity [4]: Active
- Activity [5]: Active
- Activity [6]: Non-toxic
- Activity [7]: inactive
- Activity [8]: inactive
- Activity [9]: inactive
- Activity [10]: inactive
- Activity [11]: inactive
- Activity [12]: inactive
- Activity [13]: inactive
- Activity [14]: inactive
- Activity [15]: Active
- Activity [16]: Active
- Activity [17]: Active
- Activity [18]: Active
- Activity [19]: Active
- Activity [20]: Active
- Activity [21]: Active
- Activity [22]: Active
- Activity [23]: Active
- Activity [24]: Active
- Activity [25]: Active

Compound: Cn1cc(C(=O)Nc2ccc(F)cc2Cl)c(Oc2cccc(C(F)(F)F)c2)n1
- Activity [1]: Active
- Activity [2]: Active
- Activity [3]: Active
- Activity [4]: Active
- Activity [5]: Active
- Activity [6]: Non-toxic
- Activity [7]: Active
- Activity [8]: Active
- Activity [9]: Active
- Activity [10]: Active
- Activity [11]: Active
- Activity [12]: Active
- Activity [13]: Active
- Activity [14]: Active
- Activity [15]: Active
- Activity [16]: Active
- Activity [17]: Active
- Activity [18]: Active
- Activity [19]: Active
- Activity [20]: Active
- Activity [21]: Active
- Activity [22]: Active
- Activity [23]: Active
- Activity [24]: Active
- Activity [25]: Active

Compound: Cn1cc(C(=O)Nc2ccc(F)cc2)c(Oc2cccc(C(F)(F)F)c2)n1
- Activity [1]: Active
- Activity [2]: Active
- Activity [3]: Active
- Activity [4]: Active
- Activity [5]: Active
- Activity [6]: Non-toxic
- Activity [7]: Active
- Activity [8]: Active
- Activity [9]: Active
- Activity [10]: Active
- Activity [11]: inactive
- Activity [12]: Active
- Activity [13]: Active
- Activity [14]: Active
- Activity [15]: Active
- Activity [16]: Active
- Activity [17]: Active
- Activity [18]: Active
- Activity [19]: Active
- Activity [20]: Active
- Activity [21]: Active
- Activity [22]: Active
- Activity [23]: Active
- Activity [24]: Active
- Activity [25]: Active

Compound: CCCCn1cc(C(=O)Nc2ccc(F)cc2F)c(Oc2cccc(C(F)(F)F)c2)n1
- Activity [1]: Active
- Activity [2]: Active
- Activity [3]: Active
- Activity [4]: Active
- Activity [5]: Active
- Activity [6]: Non-toxic
- Activity [7]: inactive
- Activity [8]: inactive
- Activity [9]: inactive
- Activity [10]: inactive
- Activity [11]: inactive
- Activity [12]: inactive
- Activity [13]: inactive
- Activity [14]: inactive
- Activity [15]: Active
- Activity [16]: Active
- Activity [17]: Active
- Activity [18]: Active
- Activity [19]: Active
- Activity [20]: Active
- Activity [21]: Active
- Activity [22]: Active
- Activity [23]: Active
- Activity [24]: Active
- Activity [25]: Active

Compound: Cn1cc(C(=O)Nc2ccc(Cl)cc2Cl)c(Oc2cccc(C(F)(F)F)c2)n1
- Activity [1]: Active
- Activity [2]: Active
- Activity [3]: Active
- Activity [4]: Active
- Activity [5]: Active
- Activity [6]: Non-toxic
- Activity [7]: Active
- Activity [8]: Active
- Activity [9]: Active
- Activity [10]: Active
- Activity [11]: inactive
- Activity [12]: Active
- Activity [13]: Active
- Activity [14]: inactive
- Activity [15]: Active
- Activity [16]: Active
- Activity [17]: Active
- Activity [18]: Active
- Activity [19]: Active
- Activity [20]: Active
- Activity [21]: Active
- Activity [22]: Active
- Activity [23]: Active
- Activity [24]: Active
- Activity [25]: Active

Compound: Cn1cc(C(=O)Nc2ccc(F)cc2F)c(Oc2ccc(Br)c(C(F)(F)F)c2)n1
- Activity [1]: Active
- Activity [2]: Active
- Activity [3]: Active
- Activity [4]: Active
- Activity [5]: Active
- Activity [6]: Non-toxic
- Activity [7]: Active
- Activity [8]: Active
- Activity [9]: Active
- Activity [10]: Active
- Activity [11]: inactive
- Activity [12]: Active
- Activity [13]: Active
- Activity [14]: inactive
- Activity [15]: Active
- Activity [16]: Active
- Activity [17]: Active
- Activity [18]: Active
- Activity [19]: Active
- Activity [20]: Active
- Activity [21]: Active
- Activity [22]: Active
- Activity [23]: Active
- Activity [24]: Active
- Activity [25]: Active
